Experimental data taken from article PMC8453635, “Piperidine Azasugars Bearing Lipophilic Chains: Stereoselective Synthesis and Biological Activity as Inhibitors of Glucocerebrosidase (GCase)” (The Journal of Organic Chemistry, 2021).

What follows are compounds tested against T1, β-galactosidase (Homo sapiens, UniProt P16278) (assay: Human lysosomal glycosidase selectivity screening (leukocyte homogenate)). Details: 1 mM, read-out: percentage of inhibition, β-Gal.
T1 construct: from leukocytes isolated from healthy donors (controls); from tissue; host or cells: leukocytes from healthy donors, sonicated homogenate
T1 sequence (P16278 29-677): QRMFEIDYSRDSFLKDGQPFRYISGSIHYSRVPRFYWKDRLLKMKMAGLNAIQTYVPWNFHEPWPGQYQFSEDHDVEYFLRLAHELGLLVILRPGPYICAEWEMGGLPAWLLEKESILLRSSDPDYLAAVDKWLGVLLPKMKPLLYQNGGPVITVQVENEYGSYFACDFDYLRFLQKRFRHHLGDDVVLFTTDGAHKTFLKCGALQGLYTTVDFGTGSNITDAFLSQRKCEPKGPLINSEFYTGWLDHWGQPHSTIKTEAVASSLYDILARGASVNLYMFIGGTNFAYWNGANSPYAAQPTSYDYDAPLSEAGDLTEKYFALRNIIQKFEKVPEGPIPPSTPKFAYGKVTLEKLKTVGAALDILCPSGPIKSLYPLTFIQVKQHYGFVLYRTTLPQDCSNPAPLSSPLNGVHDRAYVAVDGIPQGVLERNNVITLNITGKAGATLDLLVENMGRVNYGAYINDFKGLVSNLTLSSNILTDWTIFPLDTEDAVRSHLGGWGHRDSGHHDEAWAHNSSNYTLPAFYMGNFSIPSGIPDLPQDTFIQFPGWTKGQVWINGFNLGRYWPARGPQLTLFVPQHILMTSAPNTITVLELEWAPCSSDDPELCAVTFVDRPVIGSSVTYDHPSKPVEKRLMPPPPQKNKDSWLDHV
Format: biochemical
Method: In order to avoid undesired inhibitory side effects of a potential new drug, it has to be selective for a given target. The selectivity of the newly synthesized compounds 14, 15, and 33·HCl toward GCase was then investigated, evaluating their inhibition at 1 mM concentration toward six other lysosomal glycosidases (namely, α-and β-mannosidases, α- and β-galactosidases, α-fucosidase, and α-glucosidase) in cell homogenates (leucocytes or lymphocytes) isolated from healthy donors. […] Indeed, only moderate inhibitory activity (ca. 50%) was found toward human β-galactosidase for both piperidines 14 and 15, while negligible inhibitory activity was detected in all other cases.
The effect of 1 mM concentration of 14, 15, and 33·HCl was assayed toward six lysosomal glycosidases other than GCase, namely, α-mannosidase, β-mannosidase, α-galactosidase, β-galactosidase, α-fucosidase from leukocytes isolated from healthy donors (controls) and α-glucosidase from lymphocytes isolated from healthy donors’ flesh blood (controls). […]
μL, Sigma –Aldrich) in acetate buffer (0.1M, pH 4.3) containing NaCl (0.1M) and sodium azide (0.02%) were incubated at 37 °C for 1 h. The reaction was stopped by addition o f sodium carbonate (200 μL; 0.5M, pH 10.7) containing Triton X -100 (0.0025 %), and the fluorescence 4 -methylumbelliferone released by β-galactosidase activity was measured in SpectraMax M2 microplate reader ( λex=365 nm, λem=435 nm; Molecular Devices). […]
α-Fucosidase activity was measured in a flat -bottomed 96 -well plate. […]
α-Glucosidase activity was measured in a flat –bottomed 96 well plate. […] The reaction was stopped by the addition of a solution of sodium carbonate (200 µL; 0.5M, pH 10.7) containing Triton X -100 (0.0025 %), and the fluorescence of 4 -methylumbelliferone released by α-glucosidase activity was measured in […]
Figure S 48. […] The corresponding calculated percentage of inhibition is indicated above each bar.
For CCCCCCCC[C@H]1[C@@H](O)[C@H](O)[C@H](O)CN1CCCCCCCC [compound 14, (2S,3R,4R,5R)-1,2-Dioctylpiperidine-3,4,5-triol], the inhibition at 1000 µM was 48%.
For CCCCCCCC[C@@H]1[C@@H](O)[C@H](O)[C@H](O)CN1CCCCCCCC [compound 15, (2R,3R,4R,5R)-1,2-Dioctylpiperidine-3,4,5-triol], the inhibition at 1000 µM was 51%.
CCCCCCCC[C@@H]1[C@@H](O)[C@H](O)[C@H](O)CN1C(CCCCCCC)CCCCCCC.Cl [compound 33·HCl, (2R,3R,4R,5R)-2-Octyl-1-(pentadecan-8-yl)-piperidine-3,4,5-triol Hydrochloride] gave an inhibition at 1000 µM of 15%.
